The source of these data is US20090318370A1, “NOVEL GLYCOCONJUGATED CHLORIN DERIVATIVES AND METHOD OF PRODUCING THE SAME” (REI Medical Co., Ltd., priority 2007, published 2009).

For data set [1], the system named is HeLa cells. Nature of the data set: Evaluation of phototoxicity: WST-8 cell viability after light exposure (16 J/cm^2, halogen lamp, 500 nm cut-off filter). The note with it: light 16 J/cm^2. It counts as cell-based. The procedure: HeLa cells were plated in a 96-well plate to give a concentration of 5×10^3 cells/well (medium volume: 100 μL), and the plate was incubated at 37° C. in 5% CO2 atmosphere for 24 hours. To each well was added 100 μL of a drug solution containing 2% dimethylsulfoxide to give a certain concentration. The plate was further incubated at 37° C. in 5% CO2 atmosphere for 24 hours. Then, the medium was discarded and the cells were washed twice with phosphate buffered saline (100 μL). To each well was added 100 μL of Dulbecco's modified Eagle's medium (DMEM) containing 10% fetal calf serum (FCS). The cells were then exposed to light (16 J/cm^2) from a 100 W halogen lamp equipped with a 500 nm cut-off filter and a water jacket. After that, the plate was further incubated at 37° C. in 5% CO2 for 24 hours. And the plate was subjected to WST-8 assay and cell viability rates were calculated as relative values to those obtained in the absence of drugs. The average values of the result from 6 replicate experiments for each drug were calculated.
The light dose was adjusted by controlling the irradiation time by using a power meter.
WST assay is one of the method to determine the activity of dehydrogenase of cells, in which tetrazolium salt (WST-8) is reduced dependently on the number of viable cells. The amount of the reduction was determined by absorption spectroscopy to provide the relative amount of viable cells.
Phototoxicity were determined for the chlorin derivatives or porphyrin derivatives which were prepared in the above Example and Comparative Example and obtained as production intermediates, and the compound from Reference Example at a drug concentration of 0.5 μM according to the above evaluation method.
For the compounds No. 6 to 9 and 14 to 16 shown in Table 1, phototoxicity was determined at a drug concentration of 0.09 μM according to the above evaluation method.
On the technique in general: Formazan colour is commonly taken as a measure of viable cells.

Data set [2] deals with HeLa cells. The note with it: non-patent reference 1; cited from earlier work.
Data set [3] concerns some cells. The settings on record: non patent reference 2; cited from earlier work.
Where [4] appears, read: drug concentration 0.5 μM, FIG. 3.
The mark [5] stands for this setting: drug concentration 0.09 μM, FIG. 4.

Consider “5,10,15,20-tetrakis[3-(β-D-glucopyranosyloxy)phenyl]chlorin [compound 15]”, for which, in data set [1] (setting [4]), the “phototoxicity compared with commercially available TPPS (No. 14)” value is given as “higher phototoxicity”. In data set [2], the “cytotoxicity by irradiation with light” value is reported as “show cytotoxicity by irradiation with light” and the “cytotoxicity in the dark” value was “no cytotoxicity is found in the dark”.

Turning to `OC[C@H]1OC(Sc2c(F)c(F)c(-c3c4nc(c(-c5c(F)c(F)c(SC6O[C@H](CO)[C@@H](O)[C@H](O)[C@H]6O)c(F)c5F)c5ccc([nH]5)c(-c5c(F)c(F)c(SC6O[C@H](CO)[C@@H](O)[C@H](O)[C@H]6O)c(F)c5F)c5nc(c(-c6c(F)c(F)c(SC7O[C@H](CO)[C@@H](O)[C@H](O)[C@H]7O)c(F)c6F)c6ccc3[nH]6)C=C5)C=C4)c(F)c2F)[C@H](O)[C@@H](O)[C@@H]1O` (some centres unmarked) [5,10,15,20-tetrakis(4,1′-thio-glucosyl-2,3,5,6-tetrafluorophenyl)porphyrin], the “cell death with irradiation of light” value in data set [3] is “cell death can be observed with irradiation of light”.

On to `CN1CC2c3nc(c(-c4c(F)c(F)c(SC5OC(CO)C(O)C(O)C5O)c(F)c4F)c4ccc([n-]4)c(-c4c(F)c(F)c(SC5OC(CO)C(O)C(O)C5O)c(F)c4F)c4nc(c(-c5c(F)c(F)c(SC6OC(CO)C(O)C(O)C6O)c(F)c5F)c5ccc([n-]5)c3-c3c(F)c(F)c(SC5OC(CO)C(O)C(O)C5O)c(F)c3F)C=C4)C2C1.[Pd+2]` [compound 9, {5,10,15,20-tetrakis[4-(β-D-glucopyranosylthio)-2,3,5,6-tetrafluorophenyl]-2,3-[methano(N-methyl)iminomethano]chlorinato}palladium (II)], for which, in data set [1] (setting [5]), the “effect of sugar linkage on phototoxicity” value was “distinguished improvement of phototoxicity” and the “phototoxicity compared with O-glycosylated chlorin derivative No. 15” value is on record as “higher phototoxicity”. Further, in data set [1] (setting [4]), the “phototoxicity compared with commercially available TPPS (No. 14)” value was “higher phototoxicity” and the “phototoxicity compared with non-glycoconjugated compound (No. 1, 2, 3, 4 respectively)” value is “higher phototoxicity”. In data set [1] (drug concentration 0.5 μM), the “phototoxicity compared with No. 6, 7 and No. 15” value is “no difference in phototoxicity”; the “phototoxicity compared with O-glycosylated chlorin derivative No. 15” value is recorded as “not any differences in phototoxicity”.

`CC(=O)OC[C@H]1O[C@@H](Sc2c(F)c(F)c(-c3c4nc(c(-c5c(F)c(F)c(S[C@@H]6O[C@H](COC(C)=O)[C@@H](OC(C)=O)[C@H](OC(C)=O)[C@H]6OC(C)=O)c(F)c5F)c5ccc([nH]5)c(-c5c(F)c(F)c(S[C@@H]6O[C@H](COC(C)=O)[C@@H](OC(C)=O)[C@H](OC(C)=O)[C@H]6OC(C)=O)c(F)c5F)c5nc(c(-c6c(F)c(F)c(S[C@@H]7O[C@H](COC(C)=O)[C@@H](OC(C)=O)[C@H](OC(C)=O)[C@H]7OC(C)=O)c(F)c6F)c6ccc3[nH]6)C=C5)C=C4)c(F)c2F)[C@H](OC(C)=O)[C@@H](OC(C)=O)[C@@H]1OC(C)=O` [compound 10, 5,10,15,20-tetrakis(4-(2,3,4,6-tetra-O-acetyl-β-D-glucopyranosylthio)-2,3,5,6-tetrafluorophenyl)porphyrin, reference compound]: in data set [1] (setting [4]), the “phototoxicity of acetyl-protected compound compared with No. 6, 7, 8, 9 respectively” value was “phototoxicity was disappeared”.

On to `CC(=O)OCC1OC(Sc2c(F)c(F)c(-c3c4nc(c(-c5c(F)c(F)c(SC6OC(COC(C)=O)C(OC(C)=O)C(OC(C)=O)C6OC(C)=O)c(F)c5F)c5ccc([n-]5)c(-c5c(F)c(F)c(SC6OC(COC(C)=O)C(OC(C)=O)C(OC(C)=O)C6OC(C)=O)c(F)c5F)c5nc(c(-c6c(F)c(F)c(SC7OC(COC(C)=O)C(OC(C)=O)C(OC(C)=O)C7OC(C)=O)c(F)c6F)c6ccc3[n-]6)C=C5)C=C4)c(F)c2F)C(OC(C)=O)C(OC(C)=O)C1OC(C)=O.[Pd+2]` [compound 11, {5,10,15,20-tetrakis[4-(2,3,4,6-tetra-O-acetyl-β-D-glucopyranosylthio)-2,3,5,6-tetrafluorophenyl]porphyrinato}palladium (II), reference compound], for which, in data set [1] (setting [4]), the “phototoxicity of acetyl-protected compound compared with No. 6, 7, 8, 9 respectively” value is reported as “phototoxicity was disappeared”.

`CC(=O)OCC1OC(Sc2c(F)c(F)c(-c3c4nc(c(-c5c(F)c(F)c(SC6OC(COC(C)=O)C(OC(C)=O)C(OC(C)=O)C6OC(C)=O)c(F)c5F)c5ccc([n-]5)c(-c5c(F)c(F)c(SC6OC(COC(C)=O)C(OC(C)=O)C(OC(C)=O)C6OC(C)=O)c(F)c5F)c5nc(c(-c6c(F)c(F)c(SC7OC(COC(C)=O)C(OC(C)=O)C(OC(C)=O)C7OC(C)=O)c(F)c6F)c6ccc3[n-]6)C3CN(C)CC53)C=C4)c(F)c2F)C(OC(C)=O)C(OC(C)=O)C1OC(C)=O.[Pd+2]` [compound 13, {5,10,15,20-tetrakis[4-(2,3,4,6-tetra-O-acetyl-β-D-glucopyranosylthio)-2,3,5,6-tetrafluorophenyl]-2,3-[methano(N-methyl)iminomethano]chlorinato}palladium (II)]: the “phototoxicity of acetyl-protected compound compared with No. 6, 7, 8, 9 respectively” value in data set [1] (setting [4]) is given as “phototoxicity was disappeared”.

For the compound `CN1CC2c3nc(c(-c4c(F)c(F)c(S[C@@H]5O[C@H](CO)[C@H](O)[C@H](O)[C@H]5O)c(F)c4F)c4ccc([nH]4)c(-c4c(F)c(F)c(S[C@@H]5O[C@H](CO)[C@H](O)[C@H](O)[C@H]5O)c(F)c4F)c4nc(c(-c5c(F)c(F)c(S[C@@H]6O[C@H](CO)[C@H](O)[C@H](O)[C@H]6O)c(F)c5F)c5ccc([nH]5)c3-c3c(F)c(F)c(S[C@@H]5O[C@H](CO)[C@H](O)[C@H](O)[C@H]5O)c(F)c3F)C=C4)C2C1` (stereo partly drawn) [compound 16, 5,10,15,20-tetrakis[4-(β-D-galactopyranosylthio)-2,3,5,6-tetrafluorophenyl]-2,3-[methano(N-methyl)iminomethano]chlorin], in data set [1] (setting [4]), the “phototoxicity compared with commercially available TPPS (No. 14)” value is “higher phototoxicity”.
